Data taken from patent US20250368649A1, “TETRAHYDROPYRIDOPYRIMIDINE PAN-KRAS INHIBITORS” (Mirati Therapeutics, Inc., priority 2022, published 2025).

Tests used:
[1] = biological target: KRas G12V (Homo sapiens, UniProt P01116, G12V); assay: biochemical; conditions: Binding to KRas (IC50 nM) G12V, TR-FRET displacement, KRas G12V
[2] = biological target: KRas G12R (Homo sapiens, UniProt P01116, G12R); assay: biochemical; conditions: Binding to KRas (IC50 nM) G12R, TR-FRET displacement, KRas G12R
[3] = test system: ASPC1 cells; assay: Inhibition of KRas-mediated phosphorylation of ERK (Cisbio HTRF pERK), ASPC1 cells; assay type: cell-based; conditions: Homo sapiens, ASPC1, 3 h, AsPC-1 cells, 3 hr compound incubation
[4] = biological target: KRas G12D (Homo sapiens, UniProt P01116, G12D); assay: biochemical; conditions: Binding to KRas (IC50 nM) G12D, TR-FRET displacement, KRas G12D
[5] = test system: H727 cells; assay: Inhibition of KRas-mediated phosphorylation of ERK (Cisbio HTRF pERK), H727 cells; assay type: cell-based; conditions: Homo sapiens, NCI-H727, 3 h, 3 hr compound incubation
[6] = test system: H358 cells; assay: Inhibition of KRas-mediated phosphorylation of ERK (Cisbio HTRF pERK), H358 cells; assay type: cell-based; conditions: Homo sapiens
[7] = test system: A549 cells; assay: Inhibition of KRas-mediated phosphorylation of ERK (Cisbio HTRF pERK), A549 cells; assay type: cell-based; conditions: Homo sapiens

Sequence of KRas G12D (P01116 1-169 isoform P01116-2 G12D): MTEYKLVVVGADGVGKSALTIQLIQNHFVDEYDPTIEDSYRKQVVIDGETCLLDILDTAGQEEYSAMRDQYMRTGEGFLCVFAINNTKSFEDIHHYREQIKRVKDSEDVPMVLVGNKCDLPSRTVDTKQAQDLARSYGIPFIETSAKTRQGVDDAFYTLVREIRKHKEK
Sequence of KRas G12R (P01116 1-169 isoform P01116-2 G12R): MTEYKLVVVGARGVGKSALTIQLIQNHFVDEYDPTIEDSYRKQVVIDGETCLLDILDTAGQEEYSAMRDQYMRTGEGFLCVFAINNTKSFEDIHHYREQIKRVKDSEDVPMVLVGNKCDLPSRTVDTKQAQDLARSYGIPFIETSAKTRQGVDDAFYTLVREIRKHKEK
Sequence of KRas G12V (P01116 1-169 isoform P01116-2 G12V): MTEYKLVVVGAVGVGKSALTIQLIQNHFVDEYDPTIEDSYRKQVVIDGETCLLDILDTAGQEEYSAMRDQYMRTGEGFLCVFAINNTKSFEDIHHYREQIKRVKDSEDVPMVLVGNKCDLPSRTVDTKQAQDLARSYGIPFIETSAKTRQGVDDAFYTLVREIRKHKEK

| Compound | IC50 [1] [nM] | IC50 [2] [nM] | IC50 ([3]; Cisbio pERK HTRF) [nM] | IC50 [4] [nM] | IC50 ([5]; Cisbio pERK HTRF) [nM] | IC50 [3] [nM] | IC50 [5] [nM] | IC50 ([6]; NCI-H358, 3 h, 3 hr compound incubation) [nM] | IC50 ([7]; A549, 3 h, 3 hr compound incubation) [nM] | inhibition at 0.1 µM ([6]; NCI-H358, single point at 100 nM, 3 hrs compound incubation) [%] | inhibition at 0.1 µM ([7]; single point at 100 nM, 3 hrs compound incubation) [%] |
| --- | --- | --- | --- | --- | --- | --- | --- | --- | --- | --- | --- |
| CCCCCCCCCCN(C)C(=O)c1cc2n(n1)CCCN(c1nc(OC[C@@]34CCCN3C[C@H](F)C4)nc3c1CCN(c1cc(O)cc4ccc(F)c(CC)c14)C3)C2 [Example 266, N-decyl-5-(7-(8-ethyl-7-fluoro-3-hydroxynaphthalen-1-yl)-2-(((2R,7aS)-2-fluorohexahydro-1H-pyrrolizin-7a-yl)methoxy)-5,6,7,8-tetrahydropyrido[3,4-d]pyrimidin-4-yl)-N-methyl-5,6,7,8-tetrahydro-4H-pyrazolo[1,5-a][1,4]diazepine-2-carboxamide] | 104 | 254 | 787 | 133 | 1760 |  |  |  |  |  |  |
| CCCCCCCCCCNC(=O)c1cc2n(n1)CCCN(c1nc(OC[C@@]34CCCN3C[C@H](F)C4)nc3c1CCN(c1cc(O)cc4ccc(F)c(CC)c14)C3)C2 [Example 267, N-decyl-5-(7-(8-ethyl-7-fluoro-3-hydroxynaphthalen-1-yl)-2-(((2R,7aS)-2-fluorohexahydro-1H-pyrrolizin-7a-yl)methoxy)-5,6,7,8-tetrahydropyrido[3,4-d]pyrimidin-4-yl)-5,6,7,8-tetrahydro-4H-pyrazolo[1,5-a][1,4]diazepine-2-carboxamide] | 123 | 256 | 3620 | 148 | 3950 |  |  |  |  |  |  |
| CCc1c(F)ccc2cc(O)cc(N3CCc4c(nc(OC[C@@]56CCCN5C[C@H](F)C6)nc4N4CCCn5nc(N(C(C)C)S(C)(=O)=O)cc5C4)C3)c12 [Example 285, N-(5-(7-(8-ethyl-7-fluoro-3-hydroxynaphthalen-1-yl)-2-(((2R,7aS)-2-fluorohexahydro-1H-pyrrolizin-7a-yl)methoxy)-5,6,7,8-tetrahydropyrido[3,4-d]pyrimidin-4-yl)-5,6,7,8-tetrahydro-4H-pyrazolo[1,5-a][1,4]diazepin-2-yl)-N-isopropylmethanesulfonamide] | 886 | 773 | > 10000 | 563 | > 10000 |  |  |  |  |  |  |
| CCc1c(F)ccc2cc(O)cc(N3CCc4c(nc(OC[C@@]56CCCN5C[C@H](F)C6)nc4NCC4NC(=O)NC4=O)C3)c12 (stereo partly drawn) [Example 377, 5-(((7-(8-ethyl-7-fluoro-3-hydroxynaphthalen-1-yl)-2-(((2R,7aS)-2-fluorohexahydro-1H-pyrrolizin-7a-yl)methoxy)-5,6,7,8-tetrahydropyrido[3,4-d]pyrimidin-4-yl)amino)methyl)imidazolidine-2,4-dione] | < 2 | 4 | 2340 | 4 | 677 |  |  |  |  |  |  |
| CCc1c(F)ccc2cc(O)cc(N3CCc4c(nc(OC[C@@]56CCCN5C[C@H](F)C6)nc4NCc4cc(C(=O)N(C)C)nn4C)C3)c12 [Example 399, 5-(((7-(8-ethyl-7-fluoro-3-hydroxynaphthalen-1-yl)-2-(((2R,7aS)-2-fluorohexahydro-1H-pyrrolizin-7a-yl)methoxy)-5,6,7,8-tetrahydropyrido[3,4-d]pyrimidin-4-yl)amino)methyl)-N,N,1-trimethyl-1H-pyrazole-3-carboxamide] | 4 | 8 | 513 | 3 | 896 |  |  |  |  |  |  |
| O=C1NCC2(CCCN(c3nc(OC[C@@]45CCCN4C[C@H](F)C5)nc4c3CCN(c3c5ccccc5cc5[nH]ncc35)C4)C2)N1 (stereo partly drawn) [Example 473, 7-(7-(1H-benzo[f]indazol-4-yl)-2-(((2R,7aS)-2-fluorohexahydro-1H-pyrrolizin-7a-yl)methoxy)-5,6,7,8-tetrahydropyrido[3,4-d]pyrimidin-4-yl)-1,3,7-triazaspiro[4.5]decan-2-one] |  |  | 5120 |  | 4100 |  |  |  |  | 12 | 12 |
| CCc1c(F)ccc2cc(O)cc(N3CCc4c(nc(N5CC(N)C5)nc4N4CCC[C@@](C)(O)C4)C3)c12 [Example 486, (R)-1-(2-(3-aminoazetidin-1-yl)-7-(8-ethyl-7-fluoro-3-hydroxynaphthalen-1-yl)-5,6,7,8-tetrahydropyrido[3,4-d]pyrimidin-4-yl)-3-methylpiperidin-3-ol] | 886 | 1160 |  | 755 |  |  |  |  |  |  |  |

The next lines start with results.

| IC50 [1] [nM] | IC50 [2] [nM] | IC50 ([3]; Cisbio pERK HTRF) [nM] | IC50 [4] [nM] | IC50 ([5]; Cisbio pERK HTRF) [nM] | IC50 [3] [nM] | IC50 [5] [nM] | IC50 ([6]; NCI-H358, 3 h, 3 hr compound incubation) [nM] | IC50 ([7]; A549, 3 h, 3 hr compound incubation) [nM] | Compound | inhibition at 0.1 µM ([6]; NCI-H358, single point at 100 nM, 3 hrs compound incubation) [%] | inhibition at 0.1 µM ([7]; single point at 100 nM, 3 hrs compound incubation) [%] |
| --- | --- | --- | --- | --- | --- | --- | --- | --- | --- | --- | --- |
| 6 | 11 | > 10000 | 31 | 4440 |  |  |  |  | CCc1c(F)ccc2cc(O)cc(N3CCc4c(nc(OC[C@@]56CCCN5C[C@H](F)C6)nc4N4CCOCC(P(C)(C)=O)C4)C3)c12 (stereo partly drawn) [Example 281, (4-(7-(8-ethyl-7-fluoro-3-hydroxynaphthalen-1-yl)-2-(((2R,7aS)-2-fluorotetrahydro-1H-pyrrolizin-7a(5H)-yl)methoxy)-5,6,7,8-tetrahydropyrido[3,4-d]pyrimidin-4-yl)-1,4-oxazepan-6-yl)dimethylphosphine oxide] |  |  |
| 38500 | 43000 | > 10000 | 83300 | > 10000 |  |  |  |  | CCc1c(F)ccc2cc(O)cc(N3CCc4c(nc(OC[C@@]56CCCN5C[C@H](F)C6)nc4N4CCNc5cc(Br)ccc5C4)C3)c12 [Example 348, 4-(4-(8-bromo-1,2,3,5-tetrahydro-4H-benzo[e][1,4]diazepin-4-yl)-2-(((2R,7aS)-2-fluorotetrahydro-1H-pyrrolizin-7a(5H)-yl)methoxy)-5,8-dihydropyrido[3,4-d]pyrimidin-7(6H)-yl)-5-ethyl-6-fluoronaphthalen-2-ol] |  |  |
| 22 | 10 | 1730 | 59 | 1410 |  |  |  |  | CCc1c(F)ccc2cc(O)cc(N3CCc4c(nc(OC[C@@]56CCCN5C[C@H](F)C6)nc4N4CCCC5(CCNC5=O)C4)C3)c12 (stereo partly drawn) [Example 401, 7-(7-(8-ethyl-7-fluoro-3-hydroxynaphthalen-1-yl)-2-(((2R,7aS)-2-fluorohexahydro-1H-pyrrolizin-7a-yl)methoxy)-5,6,7,8-tetrahydropyrido[3,4-d]pyrimidin-4-yl)-2,7-diazaspiro[4.5]decan-1-one] |  |  |
| 42 | 26 | 4950 | 396 | 1970 |  |  |  |  | CCc1c(F)ccc2cc(O)cc(N3CCc4c(nc(OC[C@@]56CCCN5C[C@H](F)C6)nc4N4CCCc5occc5C4)C3)c12 [Example 423, 4-(4-(7,8-dihydro-4H-furo[3,2-c]azepin-5(6H)-yl)-2-(((2R,7aS)-2-fluorohexahydro-1H-pyrrolizin-7a-yl)methoxy)-5,6-dihydropyrido[3,4-d]pyrimidin-7(8H)-yl)-5-ethyl-6-fluoronaphthalen-2-ol] |  |  |
| < 2 | 5 | 1460 | 3 | 1200 |  |  |  |  | O=C1NCC12CCCN(c1nc(OC[C@@]34CCCN3C[C@H](F)C4)nc3c1CCN(c1cc(O)cc4ccc(F)c(Br)c14)C3)C2 (stereo partly drawn) [Example 482, 6-(7-(8-bromo-7-fluoro-3-hydroxynaphthalen-1-yl)-2-(((2R,7aS)-2-fluorohexahydro-1H-pyrrolizin-7a-yl)methoxy)-5,6,7,8-tetrahydropyrido[3,4-d]pyrimidin-4-yl)-2,6-diazaspiro[3.5]nonan-1-one] |  |  |
| 702 | 553 |  | 761 |  |  |  |  |  | CCc1c(F)ccc2cc(O)cc(N3CCc4c(nc(OC[C@@]56CCCN5C[C@H](F)C6)nc4N4CCCC5(CCCC5)C4)C3)c12 [Example 489, 5-ethyl-6-fluoro-4-(2-(((2R,7aS)-2-fluorohexahydro-1H-pyrrolizin-7a-yl)methoxy)-4-(7-azaspiro[4.5]decan-7-yl)-5,6-dihydropyrido[3,4-d]pyrimidin-7(8H)-yl)naphthalen-2-ol] |  |  |
| 14 | 13 |  | 16 |  |  |  |  |  | CCc1c(F)ccc2cc(O)cc(N3CCc4c(nc(OC[C@@]56CCCN5C[C@H](F)C6)nc4N4CCCC5(C4)NC(=O)N(C)C5=O)C3)c12 (stereo partly drawn) [Example 644, 7-(7-(8-ethyl-7-fluoro-3-hydroxynaphthalen-1-yl)-2-(((2R,7aS)-2-fluorotetrahydro-1H-pyrrolizin-7a(5H)-yl)methoxy)-5,6,7,8-tetrahydropyrido[3,4-d]pyrimidin-4-yl)-3-methyl-1,3,7-triazaspiro[4.5]decane-2,4-dione] |  |  |
|  |  |  |  |  | 2 | 4 | 1 | 1 | CCc1c(F)ccc2cc(O)cc(N3CCc4c(nc(OC[C@@]56CCCN5C/C(=C\F)C6)nc4N4CCC[C@]5(C4)NC(=O)NC5=O)C3)c12 [Example 715, (R)-7-(7-(8-ethyl-7-fluoro-3-hydroxynaphthalen-1-yl)-2-(((S,Z)-2-(fluoromethylene)tetrahydro-1H-pyrrolizin-7a(5H)-yl)methoxy)-5,6,7,8-tetrahydropyrido[3,4-d]pyrimidin-4-yl)-1,3,7-triazaspiro[4.5]decane-2,4-dione] |  |  |
